Tests used:
[1] = test system: C57/BL6N male mice; assay: Survival time in 4% oxygen after odor presentation; format: in vivo, mouse; conditions: odor 100 μl (104 mmol) presented 50 min before; measured up to 30 min; no odor controls all died within 20 min
Method: About 3-month-old C57/BL6N male mice were each placed in a highly sealed breeding cage, and a filter paper scented with 100 μl (104 mmol) of the thiazoline-related compound (2MT) was placed in the breeding cage, and the odor was presented for 50 min. After the odor was presented, the mice were placed in a tight box in which the oxygen concentration was adjusted to 4%, and the survival time of the mice was measured up to 30 min at maximum. As a control, the survival time of mice presented with a filter paper dropped with water was also measured (no odor). Furthermore, changes in the core body temperature when the odor was presented under the same conditions as in this Example were measured by the same experimental method as in Example 4.

[2] = test system: Skin ischemia-reperfusion injury model mouse; assay: Skin ischemia-reperfusion injury (pressure ulcer) model, wound area; format: in vivo; conditions: odor 100 μl (104 mmol) 30 min before and during 12 hr of pinching the skin between magnets, versus no odor
Method: Skin ischemia-reperfusion injury model mouse was generated as follows according to the method of Uchiyama et al. (Uchiyama et al., Sci Rep 5:9072, 2015). The back hair of C57/BL6N male mice (about 3-month-old) was shaved in the same manner as in Example 1, 2-3 days before the test. On the day of the test, the mice were each placed in a highly sealed cage, and a filter paper scented with 100 μl (104 mmol) of the thiazoline-related compound (2MT) was placed in the breeding cage, and the odor was presented for 30 min. As a control, a filter paper dropped with water was presented for 30 min (no odor). After 30 min, the mouse was taken out from the cage, the dorsal skin was pinched between two circular magnets and the mouse was returned to the highly sealed cage. Furthermore, a filter paper scented with 100 μl (104 mmol) of 2 MT or water was placed in the highly sealed cage, and the mouse was left for 12 hr. […] The condition of the skin on the back, which was pinched between magnets, was recorded by taking photographs every day. Based on the obtained images, the wound area was quantified with image analysis software (Photoshop, Adobe). Furthermore, changes in the core body temperature when the odor was presented under the same conditions as in this Example were measured by the same experimental method as in Example 2.

[3] = test system: mice; assay: Oxygen consumption after intraperitoneal injection; format: in vivo, mouse; conditions: versus saline
Method: An influence of a thiazoline-related compound on the oxygen consumption was analyzed. The oxygen consumption was analyzed using an energy metabolism measurement device for small animals (ARCO-2000; ARCO SYSTEM). About 3-month-old C57/BL6N male mice were each placed in a measuring chamber and, after acclimation for about 2 hr, a thiazoline-related compound (2MT) was presented. The odors were presented by placing filter papers scented with 100 μl (104 mmol) of odor molecules in the measuring chamber. As a control, an experiment in which a filter paper dropped with saline was presented to the mice was also performed. The oxygen consumption was measured every one min. Mean oxygen consumption was calculated as the mean of 10 min before presenting odor and 20 min after presenting odor.
Changes in the oxygen consumption induced by intraperitoneal injection of heterocyclic compounds (2MT and Thiomorpholine (TMO) were measured by a method similar to that in Example 8.

[4] = test system: Interleukin-1β (IL-1β); assay: Blood IL-1β in LPS sepsis model (ELISA); format: in vivo, mouse; conditions: about 80 mg/kg i.p., 1 hr and 4 hr, versus saline
Method: (§1) Lipopolysaccharide (LPS) (0.6 mg/kg) was intraperitoneally administered to male Balb/c mice (about 2-3 months old) to generate a sepsis model. Immediately after the LPS administration, 200 μl (about 80 mg/kg) of a solution prepared by diluting various heterocyclic compounds and isothiocyanate compounds 100 times with saline was intraperitoneally administered. Blood samples were collected 60 min after LPS and compound administration, EDTA plasma was prepared, and the blood level of inflammatory cytokine TNF-a was measured by the ELISA method.
(§2) A sepsis model mouse was prepared by the same method as in Example 18. Immediately after the LPS administration, 200 μl (about 80 mg/kg) of a thiazoline-related compound (2MT) solution prepared by diluting 100 times with saline was intraperitoneally administered. Blood samples were collected 1 hr and 4 hr after administration of LPS and thiazoline-related compound (2MT), EDTA plasma was prepared, and the blood levels of inflammatory cytokine Interleukin-1β (IL-1β), and anti-inflammatory cytokine Interleukin-10 (IL-10) were measured by the ELISA method.

[5] = test system: Male C57/BL6N mice; assay: Body surface temperature on odor presentation (thermography); format: in vivo, mouse; conditions: filter paper scented with 271 μmol odor, mean of 20 min, versus no odor
Method: An influence of a thiazoline-related compound and an odor molecule that induces learned fear on the body surface temperature was analyzed. Male C57/BL6N mice (about 3 months old) were anesthetized with pentobarbital (50 mg/kg, i.p.) 2-3 days before the test, and the back hair was depilated with depilatory cream. On the day of testing, each mouse was placed in a test cage and, after acclimation for 10 min, a filter paper scented with 271 μmol of a thiazoline-related compound (2-methyl-2-thiazoline; 2MT) or an odor molecule that induces learned fear (anisole) was presented in the test cage, and changes in the body surface temperature on the back were analyzed using a thermography camera (NEC Avio). The value of the body surface temperature change was calculated as the difference between the mean body surface temperature for 10min when water was presented and the mean body surface temperature for 20 min when each odor molecule was presented, and the change in the body surface temperature without odor was set to 0. […]
An influence of various thiazoline-related compounds on the body surface temperature was analyzed by a method similar to that in Example 1. As a control, an influence of an odor molecule that induces learned fear was also analyzed. […]

[6] = test system: High Mobility Group Box 1 (HMGB1); assay: Blood HMGB1 in LPS sepsis model (ELISA); format: in vivo, mouse; conditions: about 80 mg/kg i.p., 16 hr, versus saline
Method: as §1
as §2, with “16” for “1 hr and 4”, “level” for “levels”, “mediator High Mobility Group Box 1 (HMGB1) was” for “cytokine Interleukin-1β (IL-1β), and anti-inflammatory cytokine Interleukin-10 (IL-10) were”

CC1=NCCS1 [2MT, 2-methyl-2-thiazoline]
survival time in 4% oxygen [1]: many individuals survived even after 30 min | formation of pressure ulcer (wound area) [2]: formation of pressure ulcer significantly decreased | oxygen consumption [3]: suppress the oxygen consumption | blood concentration of IL-1β [4]: decreased the blood concentration of inflammatory cytokine IL-1β | changes in the body surface temperature [5]: clear decrease in the body surface temperature | blood concentration of HMGB1 [6]: decreased the blood concentration of inflammatory mediator HMGB1

From patent US20240382497A1, “PROPHYLACTIC OR THERAPEUTIC AGENT FOR HYPOXIC INJURY, ISCHAEMIA-REPERFUSION INJURY AND INFLAMMATION, CELL PROTECTION AGENT FOR TRANSPLANTATION, AND BIO-PRESERVATION AGENT” (priority 2018, published 2024)
